5Fam = 5-carboxyfluorescein label on the N-terminus
Assays:
[1] = molecular target: T1, human apo-SF-1 LBD (Homo sapiens, UniProt Q13285, C247S/C412S); assay: Native gel (electromobility) shift assay of equilibrium phosphoinositide binding to apo-SF-1 LBD; settings: for Kd: apo-SF-1 LBD 1 μM, 37°C 1 h, 1-site binding model, SEM, read-out: apparent Kd of phosphoinositide binding to SF-1 LBD
T1 construct: human SF-1 LBD comprising amino acids 218–461 of human SF-1; 6X-HIS (N, cleaved yes); TEV site (N, cleaved yes); made in house; host or cells: E. coli BL21 (DE3)
T1 sequence (Q13285 218-461 C247S/C412S): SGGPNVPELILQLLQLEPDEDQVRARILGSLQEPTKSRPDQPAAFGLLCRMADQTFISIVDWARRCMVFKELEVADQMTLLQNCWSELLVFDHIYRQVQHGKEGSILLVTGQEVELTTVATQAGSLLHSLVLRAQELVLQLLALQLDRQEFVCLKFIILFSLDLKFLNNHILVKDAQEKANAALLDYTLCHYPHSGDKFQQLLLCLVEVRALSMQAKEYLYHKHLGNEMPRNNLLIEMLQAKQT
Procedure: Apparent Kd interaction data of phosphoinositides was determined on human apo-SF-1 LBD by a previously described native gel shift assay ([21]) to monitor equilibrium binding to each phosphoinositide. Briefly, apo-SF-1 ligand binding domain was generated using an on-column washout procedure to remove bound phospholipid, wherein pure SF-1 bound to dipalmitoyl PIP3 was loaded onto a Mono Q column and washed with 1.0 L of 20 mM Hepes (8.0), 1 mM EDTA with 2 mM CHAPS at 2 ml/min to remove all bound phospholipid from SF-1 by on-column dilution. The buffer was then changed into 20 mM Hepes (8.0), 1 mM EDTA to remove detergents, and apo-SF-1 eluted using a ammonium acetate gradient, pooled, protein concentration quantitated, and then used in the phosphoinositide binding assay. For the phosphoinositide binding assay, each phosphoinositide was resuspended in water, sonicated, diluted, and stored under nitrogen at 4°C. Phosphoinositides were always re-sonicated immediately before use in binding assays. Two microliters of serially diluted phosphoinositide were added to binding reactions of 25 μl total volume, containing 1 μM final concentration of apo-SF-1 LBD in 20 mM Hepes (8.0), 1 mM EDTA, and 10 mM ammonium acetate in 200 μl polypropylene PCR strip tubes. Binding reactions were incubated at 37°C for 1 h in a PCR thermocycler with a heated reaction cover, the reaction mixed with 3 μl native loading buffer (40% glycerol, 0.005% Ponceau S) and run on a 4% to 16% polyacrylamide Bis-Tris NativePage™ gel (Invitrogen). After fixation and silver staining (BioRad), gels were scanned, the phosphoinositide-shifted band quantitated using NIH image, and apparent Kd determined by nonlinear curve fit to a single-site binding model in GraphPad Prism. Data represent at least three independent replicates.

[2] = molecular target: T2, human SF-1 LBD (2CS) (Homo sapiens, UniProt Q13285, C247S/C412S); assay: Fluorescence polarization coactivator binding assay: 5Fam-labeled PGC1α peptide binding to lipid-complexed SF-1 LBD; settings: SF-1 bound to dioleoyl vs dipalmitoyl PIP3
T2 construct: human SF-1 LBD (218–461) 2CS “Cys-lite” mutant (C247S and C412S); 6X-HIS (N, cleaved yes); TEV site (N, cleaved yes); made in house; host or cells: E. coli BL21 (DE3); peptide purchased from New England Peptide
T2 sequence (Q13285 218-461 C247S/C412S): as above
Description: The same human SF-1 LBD (2CS) construct used for crystallization was complexed with dioleoyl PIP3 and subjected to anion exchange chromatography to separate PIP3-bound species from bacterial phospholipid-bound species. PIP3-bound SF-1 elutes during anion exchange chromatography at higher ionic strength than bacterial phospholipid-bound SF-1 because of the negatively charged phosphates on the PIP3 headgroup. The PIP3-bound and bacterial phospholipid–bound fractions were pooled and concentrated as above, then serially diluted into assay buffer (20 mM Hepes [7.5], 150 mM NaCl) in black-walled 384-well nonprotein binding plates, with 50 μM SF-1 LBD as the highest concentration and a constant 25 μL volume in each well. Reproducibility in the FP assay critically relies on using nonprotein binding plates. To each well, an equal volume of N-terminal 5Fam-labeled PGC1α co-activator peptide (5Fam-EEPSLLKKLLLAPA-OH) was added to a final concentration of 100 nM fluorescently labeled peptide (purchased from New England Peptide). After a 1-h incubation nutating at room temperature in the dark, fluorescence polarization was measured on the Biotek Neo Plate reader at the Vanderbilt High-throughput Screening Center. Data were fit to a standard one-site binding model in GraphPad Prism, and all data represent at least three independent replicates.

[3] = molecular target: T3, SF-1 LBD (Homo sapiens, UniProt Q13285, C247S/C412S); assay: Limited trypsin proteolytic sensitivity assay of SF-1 LBD bound to PIP3; settings: trypsin:SF-1 1:500 (w/w), 25°C, 60 min time course; compared with PIP3(16:0/16:0)
T3 construct: human SF-1 LBD comprising amino acids 218–461 of human SF-1; 6X-HIS (N, cleaved yes); TEV site (N, cleaved yes); made in house; host or cells: E. coli BL21 (DE3)
T3 sequence (Q13285 218-461 C247S/C412S): as above
Procedure: Protease selection for limited digestion was carried out by adding elastase, thermolysin, proteinase K, or trypsin to SF-1 LBD in a protease:SF-1 LBD ratio of 1:500 (w/w), followed by incubation at 30 or 60 min and 10% SDS-PAGE followed by Coomassie stain. For determination of SF-1 proteolysis bound by PIP3(16:0/16:0) or PIP3(18:1/18:1), equal amounts of the purified SF-1 LBD used for crystallization without coactivator peptide were incubated with PIP3(16:0/16:0) or PIP3(18:1/18:1) at a protein:PIP3 molar ratio of 1:10, overnight at room temperature, a procedure determined in previous publications to result in complete PIP3 binding to SF-1 LBD. Limited proteolysis analysis was carried out by adding trypsin (Sigma) to SF1-PIP3 in a trypsin:SF-1 ratio of 1:500 (w/w), followed by incubation at 25°C for a 60 min time course. […] Gels were scanned, and the band intensities quantified using Image J (NIH). […]
(also on this page, place not known: Time (min) Relative percentage protection 0.0002*** Supplemental Figure S1:SF-1 dioleoyl is dipalmitoyl PIP3(16:0/16:0). Coomassie-stained trypsin-digested PIP3 species, trypsin treated 60-minute time course, reactions boiled run gel. B.Relative quantitation expressed percentage signal from in lane, quantified using graph comparing either PIP3(16:0/16:0) indicated PIP3(18:1/18:1) indicated trypsin Sidak’smultiple n=3). […]

[4] = molecular target: T1, human apo-SF-1 LBD; design: method as in PMID 25288771; settings: previous work; cited from earlier work
[5] = molecular target: T4, human SF-1 LBD (218-461) 2CS Cys-lite mutant (C247S and C412S) (human, UniProt Q13285 218-461, C247S | C412S); assay: fluorescence polarisation; SF-1 LBD complexed with dipalmitoyl PIP3(16:0/16:0); 100 nM 5Fam-labeled peptide; 20 mM Hepes (7.5), 150 mM NaCl; 1 h at room temperature; one-site binding model; apparent; settings: both partners purified
T4 construct: The His tag was removed with TEV; also called steroidogenic factor-1; NR5A1; source: complexed with dioleoyl PIP3, dipalmitoyl PIP3 or co-purifying bacterial phospholipid; not shown: His6, N-terminal, cleaved
T4 sequence (Q13285 218-461 C247S/C412S): as above

[6] = molecular target: T4, human SF-1 LBD (218-461) 2CS Cys-lite …; assay: fluorescence polarisation; SF-1 LBD complexed with dioleoyl PIP3(18:1/18:1), serially diluted from 50 μM; 100 nM 5Fam-labeled peptide; 20 mM Hepes (7.5), 150 mM NaCl; 1 h at room temperature; one-site binding model; settings: both partners purified
[7] = molecular target: T5, human SF-1 ligand binding domain (218–461) 2CS Cys-lite mutant (C247S and C412S) (human, UniProt Q13285 218-461, C247S | C412S); assay: fluorescence polarisation; SF-1 LBD bound to bacterial phospholipid serially diluted from 50 uM; 100 nM 5Fam-PGC1α peptide; 20 mM Hepes (7.5), 150 mM NaCl; 1 h at room temperature; one-site binding model; apparent Kd; settings: both partners purified
T5 construct: also called SF-1 LBD; SF-1 LBD (2CS); not shown: His6, N-terminal, cleaved
T5 sequence (Q13285 218-461 C247S/C412S): as above

[8] = molecular target: T4, human SF-1 LBD (218-461) 2CS Cys-lite …; assay: crystal structure; SF-1 LBD complexed with dioleoyl PIP3(18:1/18:1), then with 3-fold molar excess of PGC1α peptide; sitting drop, 20% PEG 3350, 0.2 M magnesium formate, 20°C; settings: both partners purified

Molecule CCCCCCCCCCCCCCCC(=O)OCC(COP(=O)(O)OC1C(O)C(O)C(OP(=O)(O)O)C(OP(=O)(O)O)C1O)OC(=O)CCCCCCCCCCCCCCC (stereo not drawn) [dipalmitoyl (16:0/16:0) PIP2] has a Kd [1] of 348 ± 42 nM.

With CCCCCCCC/C=C\CCCCCCCC(=O)OC[C@H](COP(=O)(O)OC1C(O)C(OP(=O)(O)O)C(OP(=O)(O)O)C(OP(=O)(O)O)C1O)OC(=O)CCCCCCC/C=C\CCCCCCCC (stereo partly drawn) [dioleoyl PIP3, 1,2-di-(9Z-octadecenoyl)-sn-glycero-3-[phosphoinositol-3,4,5-trisphosphate]] the Kd [1] was 71 ± 10 nM, the “fold lower apparent Kd than dipalmitoyl (16:0/16:0) PIP3” value ([1]; dioleoyl vs dipalmitoyl PIP3 binding to SF-1 LBD) was 3 fold and the “fold poorer affinity of PGC1α coactivator peptide for SF-1 compared with dipalmitoyl PIP3” value [2] was 6 fold. For the same molecule, the “fold poorer affinity of PGC1α coactivator peptide for SF-1 compared with dipalmitoyl PIP3” value ([2]; listed as Dioleoyl PIP3(18:1/18:1)) was at least 5 fold and the “trypsin protease sensitivity of SF-1 bound to the lipid” value [3] was “increased trypsin protease sensitivity”.

In the case of CCCCCCCCCCCCCCCC(=O)OC[C@H](COP(=O)(O)OC1C(O)C(OP(=O)(O)O)C(OP(=O)(O)O)C(OP(=O)(O)O)C1O)OC(=O)CCCCCCCCCCCCCCC (stereo partly drawn) [dipalmitoyl PIP3, 1,2-dipalmitoyl-sn-glycero-3-[phosphoinositol-3,4,5-triphophosate]], the Kd [1] is given as 130 ± 14 nM and the “affinity for SF-1” value [4] is given as “nanomolar affinity”.

B1: N-terminal 5Fam-labeled PGC1α co-activator peptide (5Fam-EEPSLLKKLLLAPA-OH) (peptide)
peptide: 5Fam-EEPSLLKKLLLAPA-OH
notes: also called fluorophore-labeled PGC1α peptide; fluorescently labeled peptide; source: synthetic peptide, bought: New England Peptide
With B1 the Kd [5] was 7700 ± 1400 nM and the Kd [6] was over 42000 nM.

B2: N-terminal 5Fam-labeled PGC1α co-activator peptide (5Fam-EEPSLLKKLLLAPA-OH) (peptide)
peptide: 5Fam-EEPSLLKKLLLAPA-OH
notes: the validation report numbers the modelled residues P141-A152 (D2:p5); also called PGC1α peptide; fluorophore-labeled PGC1α peptide; source: synthetic peptide; bought: New England Peptide
B2 showed a Kd [7] of 6800 ± 2000 nM.

B3: synthetic peptide representing the human PGC1α co-activator (H3N-EEPSLLKKLLLAPA-OH) (peptide)
peptide: H-EEPSLLKKLLLAPA-OH
notes: Unlabelled peptide used for co-crystallisation, free N- and C-termini as printed; also called PGC1α peptide; source: synthetic peptide, bought: New England Peptide
B3: binds [8].

Reference: paper PMC8178125, “The acyl chains of phosphoinositide PIP3 alter the structure and function of nuclear receptor steroidogenic factor-1” (Journal of Lipid Research, 2021)
